Test results taken from ChEMBL document CHEMBL1201862, “PubChem BioAssay data set” (2004).
Active and inactive are the calls of the source.

Legend:
[1] = growth suppression of PTEN-null colon cells, dose response, cell-based, HCT116 PTEN knockout (AID 1047); assay type: functional;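 note: HCT116 colon tumor cells with PTEN knocked out; cells exposed to compound for 60 hours before readout; potency for loss of cell viability measured by luminescence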
[2] = growth suppression of beta-catenin-knockout colon cells, dose response, cell-based, HCT116, human colon tumor (AID 1045); assay type: functional;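 note: HCT116 colon tumor cells with beta catenin knocked out; cells exposed to compound for 60 hours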
[3] = Shn3 3'UTR reporter inhibitors, dose response, cell-based, Clone20 osteoblasts, firefly luciferase, cherry-picked (AID 624132); assay type: functional;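 note: firefly luciferase luminescence from reporter carrying the Shn3 3'UTR in osteoblasts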
[4] = HepG2 cell cytotoxicity, dose response, cytotoxicity control for Shn3 inhibitor project, CellTiter-Glo, cherry-picked (AID 624134); assay type: functional, cell-based
[5] = control 3'UTR Renilla luciferase suppression, dose response, counter-screen for Shn3 inhibitor project, cell-based, Clone20-Shn3RL, cherry-picked (AID 624133); assay type: functional
[6] = target: Protein Wnt-3a (Mus musculus, UniProt P27467); test: Wnt3a-driven reporter signaling inhibition, dose response, selectivity assay for Gli-SUFU antagonist project, Wnt-LIGHT cells, luminescence (AID 651570); assay type: functional; details: read-out: IC50_Mean;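 note: Wnt-LIGHT reporter cells stimulated with conditioned medium from Wnt3a-producing cells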
[7] = target: T1, COUP transcription factor 2 (Homo sapiens, UniProt P24468); test: Luminescence-based cell-based high throughput dose response assay to identify inhibitors of COUP-TFII (NR2F2).; assay type: functional;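 note: HEK293 cells transiently cotransfected with COUP-TFII expression vector and reporter; luciferase reporter luminescence driven by COUP-TFII from the pX2-168 reporter plasmid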
T1 sequence (P24468 whole entry): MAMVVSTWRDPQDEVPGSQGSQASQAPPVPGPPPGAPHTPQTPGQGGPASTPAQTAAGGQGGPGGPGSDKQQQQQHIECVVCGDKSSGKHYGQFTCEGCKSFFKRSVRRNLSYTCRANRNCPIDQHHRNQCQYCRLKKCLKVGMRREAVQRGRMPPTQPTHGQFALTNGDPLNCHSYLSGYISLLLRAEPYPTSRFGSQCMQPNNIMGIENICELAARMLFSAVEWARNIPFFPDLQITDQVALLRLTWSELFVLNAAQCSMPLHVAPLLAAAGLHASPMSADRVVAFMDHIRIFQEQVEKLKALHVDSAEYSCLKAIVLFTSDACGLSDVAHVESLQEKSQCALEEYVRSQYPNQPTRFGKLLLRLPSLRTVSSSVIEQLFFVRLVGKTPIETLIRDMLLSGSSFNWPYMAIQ

[8] = inhibitors of PGC1a acetylation in cells, dose response, cell-based, cherry-picked samples (AID 720514); assay type: functional;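 note: potency may reflect raised or lowered acetylation signal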
[9] = target: T2, fMet-Leu-Phe receptor (Homo sapiens, UniProt P21462); test: FPR ligands, dose response (AID 519); assay type: functional
T2 sequence (P21462 whole entry): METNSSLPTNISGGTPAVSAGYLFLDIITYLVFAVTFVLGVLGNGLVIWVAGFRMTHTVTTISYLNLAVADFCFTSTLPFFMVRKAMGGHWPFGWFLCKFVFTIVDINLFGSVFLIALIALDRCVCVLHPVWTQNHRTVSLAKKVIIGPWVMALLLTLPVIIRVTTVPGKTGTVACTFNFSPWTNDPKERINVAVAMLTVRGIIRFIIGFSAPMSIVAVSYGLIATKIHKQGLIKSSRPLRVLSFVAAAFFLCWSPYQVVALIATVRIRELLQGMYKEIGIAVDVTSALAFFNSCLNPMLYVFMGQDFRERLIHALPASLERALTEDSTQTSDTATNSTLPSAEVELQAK

[10] = target: Albumin (Bos taurus, UniProt P02769); test: Counterscreen for inhibitors of T-cell receptor (TCR)-CD3 interaction: Fluorescence-based biochemical high throughput dose response assay to identify inhibitors of T-cell receptor (TCR)-CD3 interaction using a TAMRA-labeled BSA probe.; assay type: functional
[11] = target: Cytochrome P450 2C19 (Homo sapiens, UniProt P33261); test: Cytochrome panel assay with activity outcomes. Panel member name: p450-cyp2c19 Compounds with AC50 equal or less than 10 uM are considered active; assay type: functional; details: read-out: AC50
[12] = target: Cytochrome P450 3A4 (Homo sapiens, UniProt P08684);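 note: CYP3A4 tested as one member of a cytochrome P450 panel screen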
[13] = target: Cytochrome P450 2C9 (Homo sapiens, UniProt P11712)
[14] = Luminescence-based cell-based high throughput dose response assay to identify activators of the DAF-12 from the parasite S. stercoralis (ssDAF-12).; assay type: functional
[15] = target: T3, Oxysterols receptor LXR-beta (Homo sapiens, UniProt P55055); test: LXR agonists, Gal4 luciferase reporter, dose response, counter-screen for ssDAF-12 agonist project, cell-based, luminescence, HEK293, S. stercoralis campaign (AID 720737); assay type: functional; details: read-out: IC50 (the source's name)
T3 sequence (P55055 whole entry): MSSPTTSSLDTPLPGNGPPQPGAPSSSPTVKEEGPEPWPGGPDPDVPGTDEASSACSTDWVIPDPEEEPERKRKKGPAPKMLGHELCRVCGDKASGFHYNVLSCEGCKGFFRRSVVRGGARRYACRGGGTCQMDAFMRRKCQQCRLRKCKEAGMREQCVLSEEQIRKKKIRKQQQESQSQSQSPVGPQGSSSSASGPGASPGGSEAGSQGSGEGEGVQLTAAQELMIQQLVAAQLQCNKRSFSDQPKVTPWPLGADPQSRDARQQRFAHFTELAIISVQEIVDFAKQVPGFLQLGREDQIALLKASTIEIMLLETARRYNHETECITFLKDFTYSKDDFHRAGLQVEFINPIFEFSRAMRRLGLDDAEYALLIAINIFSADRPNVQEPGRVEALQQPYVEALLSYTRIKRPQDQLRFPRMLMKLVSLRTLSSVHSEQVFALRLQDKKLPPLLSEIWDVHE

[16] = cells; assay type: functional, cell-based
[17] = target: T4, Trace amine-associated receptor 1 (Homo sapiens, UniProt Q96RJ0); test: Fluorescence-based cell-based high throughput dose response assay to identify agonists of the human trace amine associated receptor 1 (TAAR1).; assay type: functional
T4 sequence (Q96RJ0 whole entry): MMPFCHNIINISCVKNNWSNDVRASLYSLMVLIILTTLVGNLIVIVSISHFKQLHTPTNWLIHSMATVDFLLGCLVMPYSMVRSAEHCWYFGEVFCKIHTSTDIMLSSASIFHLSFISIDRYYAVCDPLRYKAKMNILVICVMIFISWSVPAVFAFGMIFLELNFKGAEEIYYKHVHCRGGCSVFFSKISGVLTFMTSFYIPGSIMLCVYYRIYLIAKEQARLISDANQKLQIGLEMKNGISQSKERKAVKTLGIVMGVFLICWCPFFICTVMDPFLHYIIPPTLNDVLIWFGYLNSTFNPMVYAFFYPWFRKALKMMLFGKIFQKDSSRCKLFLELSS

[18] = target: T4, Trace amine-associated receptor 1; test: Counterscreen for agonists of the human trace amine associated receptor 1 (hTAAR1): Fluorescence-based cell-based high throughput dose response assay to identify hTAAR1 agonist that also desensitize TAAR1 receptor response.; assay type: functional
[19] = cells; assay type: functional, cell-based; remark: listed apart in the source
[20] = target: T5, Rac GTPase-activating protein 1 (Homo sapiens, UniProt Q9H0H5); test: MgcRacGAP GTPase-activating activity inhibitors, confirmation, biochemical, ADP Hunter fluorescence, primary and confirmatory (AID 624330); assay type: functional
T5 sequence (Q9H0H5 whole entry): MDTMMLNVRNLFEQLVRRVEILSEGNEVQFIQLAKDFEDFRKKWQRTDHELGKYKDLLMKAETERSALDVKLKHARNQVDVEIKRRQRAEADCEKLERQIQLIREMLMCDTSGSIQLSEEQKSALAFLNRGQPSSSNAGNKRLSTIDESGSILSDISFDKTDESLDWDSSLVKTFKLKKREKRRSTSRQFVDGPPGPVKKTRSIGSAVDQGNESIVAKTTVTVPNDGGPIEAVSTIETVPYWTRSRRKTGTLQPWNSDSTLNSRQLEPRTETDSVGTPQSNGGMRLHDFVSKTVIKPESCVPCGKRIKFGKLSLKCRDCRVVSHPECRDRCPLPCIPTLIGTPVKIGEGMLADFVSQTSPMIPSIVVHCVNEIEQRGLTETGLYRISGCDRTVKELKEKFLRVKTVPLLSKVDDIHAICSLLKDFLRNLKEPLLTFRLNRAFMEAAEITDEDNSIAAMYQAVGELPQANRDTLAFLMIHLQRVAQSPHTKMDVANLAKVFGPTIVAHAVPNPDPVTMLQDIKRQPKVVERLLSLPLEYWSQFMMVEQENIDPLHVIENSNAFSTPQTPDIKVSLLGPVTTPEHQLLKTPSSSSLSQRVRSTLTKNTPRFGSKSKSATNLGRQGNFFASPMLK

Sequence of Albumin (P02769 whole entry): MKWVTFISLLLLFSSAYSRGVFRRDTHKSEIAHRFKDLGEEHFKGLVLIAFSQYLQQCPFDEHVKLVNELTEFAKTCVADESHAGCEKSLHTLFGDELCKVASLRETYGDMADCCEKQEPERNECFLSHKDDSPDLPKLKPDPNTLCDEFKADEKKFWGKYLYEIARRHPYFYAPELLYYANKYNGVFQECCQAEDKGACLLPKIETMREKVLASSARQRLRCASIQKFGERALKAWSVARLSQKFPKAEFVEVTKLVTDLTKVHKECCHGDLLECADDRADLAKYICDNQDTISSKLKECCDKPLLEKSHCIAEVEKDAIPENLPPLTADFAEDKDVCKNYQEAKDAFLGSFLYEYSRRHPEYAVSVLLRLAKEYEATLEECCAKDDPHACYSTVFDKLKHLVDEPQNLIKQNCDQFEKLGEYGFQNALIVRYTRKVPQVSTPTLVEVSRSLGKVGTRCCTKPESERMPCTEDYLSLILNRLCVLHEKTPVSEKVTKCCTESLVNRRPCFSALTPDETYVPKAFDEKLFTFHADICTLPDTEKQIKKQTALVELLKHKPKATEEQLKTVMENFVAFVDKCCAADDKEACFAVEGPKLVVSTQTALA
Sequence of Protein Wnt-3a (P27467 whole entry): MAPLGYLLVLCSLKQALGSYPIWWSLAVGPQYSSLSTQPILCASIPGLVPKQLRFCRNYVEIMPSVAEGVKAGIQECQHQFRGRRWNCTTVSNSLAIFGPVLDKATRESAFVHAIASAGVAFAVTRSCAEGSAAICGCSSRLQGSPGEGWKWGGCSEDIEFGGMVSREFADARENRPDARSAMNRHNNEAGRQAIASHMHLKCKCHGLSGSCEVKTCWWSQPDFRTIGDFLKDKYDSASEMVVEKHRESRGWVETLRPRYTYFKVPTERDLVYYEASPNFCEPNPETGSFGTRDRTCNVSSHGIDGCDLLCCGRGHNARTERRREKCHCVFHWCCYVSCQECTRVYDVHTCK
Sequence of Cytochrome P450 2C9 (P11712 whole entry): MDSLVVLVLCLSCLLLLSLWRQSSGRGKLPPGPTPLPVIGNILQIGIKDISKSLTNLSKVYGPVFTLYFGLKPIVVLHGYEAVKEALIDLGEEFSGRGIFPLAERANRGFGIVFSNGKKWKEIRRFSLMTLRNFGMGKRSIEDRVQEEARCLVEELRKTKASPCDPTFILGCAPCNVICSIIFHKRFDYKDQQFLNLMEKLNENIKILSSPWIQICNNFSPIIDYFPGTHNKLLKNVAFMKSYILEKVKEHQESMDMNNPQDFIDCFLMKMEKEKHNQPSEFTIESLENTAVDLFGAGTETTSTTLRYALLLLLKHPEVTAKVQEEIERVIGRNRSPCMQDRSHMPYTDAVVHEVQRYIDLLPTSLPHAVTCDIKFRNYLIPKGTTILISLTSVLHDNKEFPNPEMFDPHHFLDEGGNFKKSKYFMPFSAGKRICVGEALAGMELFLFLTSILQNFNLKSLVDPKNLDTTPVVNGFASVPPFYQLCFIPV
Sequence of Cytochrome P450 2C19 (P33261 whole entry): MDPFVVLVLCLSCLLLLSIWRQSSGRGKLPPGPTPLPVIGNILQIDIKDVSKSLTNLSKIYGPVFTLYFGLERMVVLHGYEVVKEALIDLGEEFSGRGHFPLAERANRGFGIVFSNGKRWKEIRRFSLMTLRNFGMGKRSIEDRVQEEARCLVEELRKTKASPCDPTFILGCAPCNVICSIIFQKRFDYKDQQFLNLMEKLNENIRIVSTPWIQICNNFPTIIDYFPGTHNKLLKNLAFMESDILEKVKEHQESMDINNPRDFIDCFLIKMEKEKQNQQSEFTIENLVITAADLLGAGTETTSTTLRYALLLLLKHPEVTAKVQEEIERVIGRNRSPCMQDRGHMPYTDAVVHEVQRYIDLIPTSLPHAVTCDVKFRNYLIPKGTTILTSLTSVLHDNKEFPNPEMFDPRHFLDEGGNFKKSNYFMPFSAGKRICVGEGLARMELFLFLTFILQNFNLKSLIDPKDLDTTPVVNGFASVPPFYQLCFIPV
Sequence of Cytochrome P450 3A4 (P08684 whole entry): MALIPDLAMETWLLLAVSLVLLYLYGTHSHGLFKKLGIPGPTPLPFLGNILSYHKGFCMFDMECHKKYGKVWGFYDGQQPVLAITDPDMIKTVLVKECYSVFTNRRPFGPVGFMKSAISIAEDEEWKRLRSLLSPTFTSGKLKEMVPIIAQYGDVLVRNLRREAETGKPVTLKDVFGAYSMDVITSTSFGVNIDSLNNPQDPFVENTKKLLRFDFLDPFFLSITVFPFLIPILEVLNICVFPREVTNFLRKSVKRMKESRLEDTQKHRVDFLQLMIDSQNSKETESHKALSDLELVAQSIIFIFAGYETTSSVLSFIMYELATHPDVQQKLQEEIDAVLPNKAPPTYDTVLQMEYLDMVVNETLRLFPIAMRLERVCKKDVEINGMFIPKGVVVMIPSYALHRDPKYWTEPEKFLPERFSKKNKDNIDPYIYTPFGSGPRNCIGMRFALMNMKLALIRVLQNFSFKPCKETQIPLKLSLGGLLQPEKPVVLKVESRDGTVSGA

SMILES: CCCCOC(=O)c1[nH]c2c(c1C)C(=O)CC(c1cc(OC)c(OC)c(OC)c1)C2 (stereo not given)
- EC50 [1]: 79.5 µM (active)
- EC50 [2]: 58.8 µM (active)
- AC50 [3]: 1.35 µM (active)
- AC50 [4]: 62 µM (active)
- AC50 [5]: 3.74 µM (active)
- IC50 [6]: 8.48 µM (active)
- IC50 [7]: 7.91 µM (active)

SMILES: CC(NC1=NS(=O)(=O)c2ccccc21)C(=O)NCCCc1ccccc1 (stereo not given)
- AC50 [8]: 11.4 µM (active)

SMILES: CCC(CCC(=O)Nc1cccc(C(=O)O)c1)C(=O)O (stereo not given)
- Ki [9]: > 66.7 µM (inactive)

SMILES: O=C(CNC(=O)c1ccccc1F)NNC(=O)c1ccccc1O
- IC50 [10]: > 94.1 µM (inactive)

SMILES: CCOc1ccccc1Oc1c(C)oc2cc(OC(=O)c3ccco3)ccc2c1=O
- AC50 [11]: 3.16 µM (inconclusive)
- Ki [9]: 20.5 µM (inactive)
- AC50 [12]: 20 µM (inconclusive)
- AC50 [13]: inconclusive

SMILES: Cc1cccc(S(=O)(=O)N(C)C[C@@H]2OCc3cn(nn3)CCCC(=O)N([C@@H](C)CO)C[C@H]2C)c1
- AC50 [8]: 34.4 µM (active)

SMILES: Cc1ccc(-c2cc(-c3ccccc3)no2)c(O)c1
- IC50 [14]: > 67.5 µM (inactive)
- EC50 [15]: > 67.5 µM (inactive)

SMILES: Cc1ccc(S(=O)(=O)N2CCC(C(=O)NNC(=O)c3ccccc3O)CC2)cc1C
- IC50 [10]: > 94.1 µM (inactive)

SMILES: C#CCOC(=O)CCC(=O)NCCc1ccccc1
- IC50 [16]: > 29.9 µM (inactive)
- EC50 [17]: 3.07 µM (active)
- IC50 [18]: 1.66 µM (active)
- EC50 [19]: > 29.9 µM (inactive)

SMILES: Cc1ccc(/C=N/Nc2ccc(Cl)c(C(=O)O)c2)s1
- IC50 [20]: 80.5 µM (active)
- IC50 [14]: > 67.6 µM (inactive)
- EC50 [15]: > 67.6 µM (inactive)
